Where two headings read alike, the source gives them in different places.
Columns and labels:
MYB mRNA = assay: RT-qPCR splicing assay, MYB mRNA canonical (CJ) and alternative (AJ) junction; assay type: cell-based, human; conditions: Homo sapiens; for AC50: MYB alternative junction mRNA increase, read-out: MYB AJ (increase in alternative junction mRNA, AC50)
How it was run: (§1)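 Splice switching quantified in compound-treated A673/K562 cells after 24 h exposure (top dose 10 uM, 3-fold steps, ≤0.25% DMSO), using CJ and AJ qPCR assays run at least in duplicate. RQ derived by 2^(−ΔΔCt), then percentage response.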

K562 cells = assay: Cell Titer Glo 2.0 cell viability (toxicity) assay, K562; conditions: 500 cells/well, 72 hours
Target C = assay: RT-qPCR canonical junction panel assay, Target C mRNA; assay type: cell-based; conditions: Table 4, read-out: Target C IC50 (decrease in CJ mRNA levels)
Procedure: Compounds described herein were used to modulate RNA transcript abundance in cells. The expression of a target mRNA was measured by detecting the formation of an exon-exon junction in the canonical transcript (CJ). A compound mediated exon-inclusion event was detected by observing an increase in formation of a new junction with an alternative exon (AJ). Real-time qPCR assays were used to detect these splicing switches and interrogate the potency of various compounds towards different target genes. A high-throughput real time quantitative PCR (RT-qPCR) assay was developed to measure these two isoforms of the mRNA (CJ and AJ) for exemplary genes, such as HTT, SMN2, and MYB, together with a control housekeeping gene, GAPDH or GUSB or PPIA, used for normalization. Briefly, the A673 or K562 cell line was treated with various compounds described herein (e.g., compounds of Formula (I)). After treatment, the levels of the HTT, MYB, or SMN2 mRNA targets were determined from each sample of cell lysate by cDNA synthesis followed by qPCR.
The data analysis was performed by first determining the ΔCt vs the housekeeper gene. This ΔCt was then normalized against the DMSO control (ΔΔCt) and converted to RQ (relative quantification) using the 2^(−ΔΔCt) equation. The RQ were then converted to a percentage response by arbitrarily setting an assay window of 3.5 and 4.0 ΔCt for HTT-CJ and MYB-CJ respectively and an assay window of 9 and 3 ΔCt for HTT-AJ and MYB-AJ in 96 well format (50,000 K562 cells/well and 15,000 A673 cells per well) and an assay window of 3 and 4 ΔCt for HTT-CJ and MYB-CJ respectively and an assay window of 5 and 3 ΔCt for HTT-AJ and MYB-AJ respectively in 384 well format (8,000 K562 cells/well example). […] The percentage response was then fitted to the 4 parametric logistic equation to evaluate the concentration dependence of compound treatment. The increase in AJ mRNA is reported as AC50 (compound concentration having 50% response in AJ increase) while the decrease in CJ mRNA levels is reported as IC50 (compound concentration having […] in CJ decrease).
Additional studies were carried out for a larger panel of genes using the protocol provided above. The junction between flanking upstream and downstream exons was used to design canonical junction Qpcr assays. At least one of the forward primer, reverse primer or the CY5-labeled 5′ nuclease probe (with 3′ quencher such as ZEN/Iowa Black FQ) was designed to overlap with the exon junction to capture the CJ Mrna transcript. BLAST was used to confirm the specificity of the probeset and parameters suCH As melting temperature, GC content, amplicon size, and primer dimer formation are considered during their design. Data for the decrease in CJ Mrna levels for four exemplary genes (HTT, SMN2, MYB, and Target C) analyzed in this panel are reported as IC50 (compound concentration having […] in CJ decrease).

HTT mRNA = assay: RT-qPCR splicing assay, HTT mRNA canonical (CJ) and alternative (AJ) junction; assay type: cell-based, human; conditions: Homo sapiens; for AC50: HTT alternative junction mRNA increase, read-out: HTT AJ (increase in alternative junction mRNA, AC50)
How it was run: as §1

SMN2 mRNA = assay: RT-qPCR splicing assay, SMN2 mRNA; assay type: cell-based, human; conditions: Homo sapiens, canonical junction qPCR panel, Table 4; read-out: SMN2 IC50 (decrease in CJ mRNA levels)
How it was run: as §1

[1] = RT-qPCR, MYB canonical junction mRNA decrease, read-out: MYB CJ (decrease in canonical junction mRNA, IC50)
[2] = canonical junction qPCR panel, Table 4, read-out: MYB IC50 (decrease in CJ mRNA levels)
[3] = RT-qPCR, HTT canonical junction mRNA decrease, read-out: HTT CJ (decrease in canonical junction mRNA, IC50)
[4] = canonical junction qPCR panel, Table 4, read-out: HTT IC50 (decrease in CJ mRNA levels)

CCc1nc2cc(O)c(-c3ccc4nc(N5CC[C@@H](NC(C)(C)C)C5)ccc4n3)cc2o1 (single isomer, unassigned) [Compound 808]
AC50 (MYB mRNA; RT-qPCR): 1 to 10 µM | IC50 (MYB mRNA; [1]): 1 to 10 µM | IC50 (MYB mRNA; [2]): 1 to 10 µM | Effect of Exemplary Compounds on Cell Viability, K562 (K562 cells): C (C represents 1000-9999 nM) | IC50 (Target C): 1 to 10 µM | AC50 (HTT mRNA; RT-qPCR): 1 to 10 µM | IC50 (HTT mRNA; [3]): 1 to 10 µM | IC50 (HTT mRNA; [4]): 1 to 10 µM | IC50 (SMN2 mRNA): 0.1 to 1 µM

CCc1nc2cc(O)c(-c3ccc4nc(N5CC[C@H](NC(C)(C)C)C5)ccc4n3)cc2o1 (single isomer, unassigned) [Compound 809]
AC50 (MYB mRNA; RT-qPCR): 1 to 10 µM | IC50 (MYB mRNA; [1]): 1 to 10 µM | IC50 (MYB mRNA; [2]): 1 to 10 µM | Effect of Exemplary Compounds on Cell Viability, K562 (K562 cells): C (C represents 1000-9999 nM) | IC50 (Target C): 1 to 10 µM | AC50 (HTT mRNA; RT-qPCR): 1 to 10 µM | IC50 (HTT mRNA; [3]): 1 to 10 µM | IC50 (HTT mRNA; [4]): 1 to 10 µM | IC50 (SMN2 mRNA): 1 to 10 µM

Cc1c(O)c(-c2ncc3cc(N4C[C@H](C)NC5(CC5)C4)ccc3n2)cc2cn(C)nc12 (single isomer, unassigned) [Compound 810]
AC50 (MYB mRNA; RT-qPCR): 0.1 to 1 µM | IC50 (MYB mRNA; [1]): 0.1 to 1 µM | IC50 (MYB mRNA; [2]): 0.1 to 1 µM | Effect of Exemplary Compounds on Cell Viability, K562 (K562 cells): B (B represents 100-1000 nM) | IC50 (Target C): 1 to 10 µM | AC50 (HTT mRNA; RT-qPCR): 1 to 10 µM | IC50 (HTT mRNA; [3]): 1 to 10 µM | IC50 (HTT mRNA; [4]): 1 to 10 µM | IC50 (SMN2 mRNA): < 0.1 µM

Cc1c(O)c(-c2ncc3cc(N4C[C@@H](C)NC5(CC5)C4)ccc3n2)cc2cn(C)nc12 (single isomer, unassigned) [Compound 811]
AC50 (MYB mRNA; RT-qPCR): < 0.1 µM | IC50 (MYB mRNA; [1]): < 0.1 µM | IC50 (MYB mRNA; [2]): < 0.1 µM | Effect of Exemplary Compounds on Cell Viability, K562 (K562 cells): B (B represents 100-1000 nM) | IC50 (Target C): > 10 µM | AC50 (HTT mRNA; RT-qPCR): 1 to 10 µM | IC50 (HTT mRNA; [3]): 1 to 10 µM | IC50 (HTT mRNA; [4]): 1 to 10 µM | IC50 (SMN2 mRNA): < 0.1 µM

C[C@H]1CN(c2ccc3nc(-c4cc5cn(C)nc5cc4O)ncc3c2)CC2(CC2)N1 (single isomer, unassigned) [Compound 812]
AC50 (MYB mRNA; RT-qPCR): 0.1 to 1 µM | IC50 (MYB mRNA; [1]): 0.1 to 1 µM | IC50 (MYB mRNA; [2]): 0.1 to 1 µM | Effect of Exemplary Compounds on Cell Viability, K562 (K562 cells): B (B represents 100-1000 nM) | IC50 (Target C): 1 to 10 µM | AC50 (HTT mRNA; RT-qPCR): 1 to 10 µM | IC50 (HTT mRNA; [3]): 1 to 10 µM | IC50 (HTT mRNA; [4]): 1 to 10 µM | IC50 (SMN2 mRNA): < 0.1 µM

C[C@@H]1CN(c2ccc3nc(-c4cc5cn(C)nc5cc4O)ncc3c2)CC2(CC2)N1 (single isomer, unassigned) [Compound 813]
AC50 (MYB mRNA; RT-qPCR): 0.1 to 1 µM | IC50 (MYB mRNA; [1]): 0.1 to 1 µM | IC50 (MYB mRNA; [2]): 0.1 to 1 µM | Effect of Exemplary Compounds on Cell Viability, K562 (K562 cells): B (B represents 100-1000 nM) | IC50 (Target C): > 10 µM | AC50 (HTT mRNA; RT-qPCR): > 10 µM | IC50 (HTT mRNA; [3]): > 10 µM | IC50 (HTT mRNA; [4]): > 10 µM | IC50 (SMN2 mRNA): < 0.1 µM

Cc1cn2cc(-c3ncc4cc(N5C[C@H](C)NC6(CC6)C5)ccc4n3)cc(F)c2n1 (single isomer, unassigned) [Compound 814]
AC50 (MYB mRNA; RT-qPCR): 0.1 to 1 µM | IC50 (MYB mRNA; [1]): 0.1 to 1 µM | IC50 (MYB mRNA; [2]): 0.1 to 1 µM | Effect of Exemplary Compounds on Cell Viability, K562 (K562 cells): B (B represents 100-1000 nM) | IC50 (Target C): > 10 µM | AC50 (HTT mRNA; RT-qPCR): 1 to 10 µM | IC50 (HTT mRNA; [3]): 0.1 to 1 µM | IC50 (HTT mRNA; [4]): 0.1 to 1 µM | IC50 (SMN2 mRNA): < 0.1 µM

— US20250092065A1, “2-(INDAZOL-5-YL)-6-(PIPERIDIN-4-YL)-1,7-NAPHTHYRIDINE DERIVATIVES AND RELATED COMPOUNDS AS MODULATORS FOR SPLICING NUCLEIC ACIDS AND FOR THE TREATMENT OF PROLIFERATIVE DISEASES” (REMIX THERAPEUTICS INC., priority 2022, published 2025)
